Experimental data as given in ChEMBL document CHEMBL2016560, “Mannitol Bis-phosphate Based Inhibitors of Fructose 1,6-Bisphosphate Aldolases” (ACS Med Chem Lett, 2011).
Activity calls are given as the source filed them. The calls are words filed in the database; no cut-off is given here.

Assays:
[1] = target: T1, Fructose-bisphosphate aldolase, glycosomal (Trypanosoma brucei brucei) (UniProt P07752); assay: Competitive inhibition of His-tagged recombinant Trypanosoma brucei fructose bis-phosphate aldolase expressed in Escherichia coli by double-reciprocal plot analysis
T1 sequence (whole entry): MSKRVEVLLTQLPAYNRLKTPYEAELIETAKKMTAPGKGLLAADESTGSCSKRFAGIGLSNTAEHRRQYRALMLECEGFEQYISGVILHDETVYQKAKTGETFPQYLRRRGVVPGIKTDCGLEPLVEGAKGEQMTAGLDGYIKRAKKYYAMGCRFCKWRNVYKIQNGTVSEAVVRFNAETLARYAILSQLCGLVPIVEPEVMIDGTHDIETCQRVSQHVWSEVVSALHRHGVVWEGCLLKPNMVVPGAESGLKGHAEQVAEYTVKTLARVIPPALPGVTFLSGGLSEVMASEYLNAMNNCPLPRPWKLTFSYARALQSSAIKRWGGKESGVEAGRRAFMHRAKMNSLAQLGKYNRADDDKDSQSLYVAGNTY

[2] = target: T2, Fructose-bisphosphate aldolase, glycosomal (Trypanosoma brucei brucei, UniProt P07752); assay: Inhibition of His-tagged recombinant Trypanosoma brucei fructose bis-phosphate aldolase expressed in Escherichia coli using FBP as substrate after 5 to 15 mins
T2 sequence (P07752 whole entry): T1 sequence (whole entry)

[3] = target: T3, Fructose-bisphosphate aldolase A (Oryctolagus cuniculus, UniProt P00883); assay: Inhibition of rabbit muscle FBA assessed as inhibition of FBP cleavage by spectrophotometry
T3 sequence (P00883 whole entry): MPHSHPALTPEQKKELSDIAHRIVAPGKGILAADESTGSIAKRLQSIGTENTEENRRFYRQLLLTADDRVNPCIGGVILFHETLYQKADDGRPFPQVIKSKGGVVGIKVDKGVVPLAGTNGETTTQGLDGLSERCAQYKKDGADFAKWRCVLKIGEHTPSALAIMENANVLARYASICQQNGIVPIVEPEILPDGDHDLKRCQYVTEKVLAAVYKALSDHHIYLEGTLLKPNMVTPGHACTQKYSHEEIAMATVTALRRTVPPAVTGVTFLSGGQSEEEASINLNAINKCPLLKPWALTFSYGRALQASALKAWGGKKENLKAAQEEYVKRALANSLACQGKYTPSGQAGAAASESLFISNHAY

Compound | inhibition mode (competitive) [1] | IC50 [2] [µM] | IC50 [3] [µM]
CCO[C@H](COP(=O)(O)O)[C@@H](O)[C@H](O)[C@H](O)COP(=O)(O)O | Active | 51 | 64
O=P(O)(O)OC[C@@H](O)[C@@H](O)[C@H](O)[C@@H](COP(=O)(O)O)OCCCc1ccccc1 | Active | 31 | 21
O=P(O)(O)OC[C@@H](O)[C@@H](O)[C@H](O)[C@H](O)COP(=O)(O)O |  | 9.4 | 8
CC[C@@](O)(COP(=O)(O)O)[C@@H](O)[C@H](O)[C@H](O)COP(=O)(O)O | Active | 130 | 244
O=C(COP(=O)(O)O)[C@@H](O)[C@H](O)[C@H](O)COP(=O)(O)O (mixture of isomers) |  | 10 | 13
CCCCCO[C@H](COP(=O)(O)O)[C@@H](O)[C@H](O)[C@H](O)COP(=O)(O)O | Active | 117 | 157

Continued, values first:

inhibition mode (competitive) [1] | IC50 [2] [µM] | IC50 [3] [µM] | Compound
Active | 15 | 17 | CCCCC[C@@](O)(COP(=O)(O)O)[C@@H](O)[C@H](O)[C@H](O)COP(=O)(O)O
Active | 2 | 7.5 | CO[C@H](COP(=O)(O)O)[C@@H](O)[C@H](O)[C@H](O)COP(=O)(O)O
Active | 56 | 137 | O=P(O)(O)OC[C@@H](O)[C@@H](O)[C@H](O)[C@@](O)(CCCc1ccccc1)COP(=O)(O)O
